The values below come from PMC5353671, “A bacterial aromatic aldehyde dehydrogenase critical for the efficient catabolism of syringaldehyde” (Scientific Reports, 2017).

The target in test [1] is T1, SLG_38120 (Sphingobium sp. SYK-6, UniProt G2IRC1).
T1 construct: gene feaB; coding region in pET21a(+), extract of E. coli BL21(DE3)
T1 sequence (G2IRC1 1-493): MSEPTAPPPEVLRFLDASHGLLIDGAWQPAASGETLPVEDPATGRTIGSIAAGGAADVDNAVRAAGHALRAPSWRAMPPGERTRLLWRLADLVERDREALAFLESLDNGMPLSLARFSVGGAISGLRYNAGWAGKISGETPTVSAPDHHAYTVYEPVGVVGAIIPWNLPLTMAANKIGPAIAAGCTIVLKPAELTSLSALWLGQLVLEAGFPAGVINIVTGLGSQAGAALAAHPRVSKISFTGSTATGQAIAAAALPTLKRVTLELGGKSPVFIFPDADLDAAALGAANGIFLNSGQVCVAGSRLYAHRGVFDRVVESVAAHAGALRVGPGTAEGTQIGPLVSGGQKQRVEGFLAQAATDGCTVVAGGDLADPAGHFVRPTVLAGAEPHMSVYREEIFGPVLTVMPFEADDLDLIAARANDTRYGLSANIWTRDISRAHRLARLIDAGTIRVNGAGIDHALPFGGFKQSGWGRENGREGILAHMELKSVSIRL
The test is described as follows: HPLC, E. coli cell extract. The format is biochemical. The note with it: 100 μM substrate, 500 μM NAD+, 30 °C.

Test [2] addresses T2, SLG_11410 (Sphingobium sp. SYK-6, UniProt G2IPY8).
T2 construct: coding region in pET21a(+), extract of E. coli BL21(DE3)
T2 sequence (G2IPY8 1-498): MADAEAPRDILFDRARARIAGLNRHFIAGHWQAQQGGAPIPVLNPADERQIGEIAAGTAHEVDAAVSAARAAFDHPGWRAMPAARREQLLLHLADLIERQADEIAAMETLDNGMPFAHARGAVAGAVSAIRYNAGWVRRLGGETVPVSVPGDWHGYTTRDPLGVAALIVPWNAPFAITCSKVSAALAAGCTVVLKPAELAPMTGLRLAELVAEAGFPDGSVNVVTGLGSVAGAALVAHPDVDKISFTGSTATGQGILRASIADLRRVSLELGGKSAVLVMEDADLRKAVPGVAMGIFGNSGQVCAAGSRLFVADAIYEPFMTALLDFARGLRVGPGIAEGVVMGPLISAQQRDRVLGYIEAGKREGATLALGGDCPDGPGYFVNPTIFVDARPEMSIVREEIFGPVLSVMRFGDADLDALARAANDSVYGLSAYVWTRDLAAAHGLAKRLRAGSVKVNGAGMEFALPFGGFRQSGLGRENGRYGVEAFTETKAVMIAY
The test is described as follows: HPLC, E. coli cell extract. The test is classed as biochemical. The note with it: 100 μM substrate, 500 μM NAD+, 30 °C.

With `COc1cc(C=O)cc(OC)c1O` [syringaldehyde], the specific activity entry in test [1] and in test [2] was “All these aromatic ALDH gene products converted SN into syringate” throughout.
